Data reported in ChEMBL document CHEMBL1126366, “Design & synthesis of a novel EPSP synthase inhibitor based on its ternary complex with shikimate-3-phosphate and glyphosate” (Bioorg Med Chem Lett, 1992).
pKd, pKi: −log10 of the molar value.

Assays:
[1] = biological target: T1, 3-phosphoshikimate 1-carboxyvinyltransferase (Escherichia coli K-12, UniProt P0A6D3); test: Dissociation constant against EPSP synthase
T1 sequence (P0A6D3 whole entry): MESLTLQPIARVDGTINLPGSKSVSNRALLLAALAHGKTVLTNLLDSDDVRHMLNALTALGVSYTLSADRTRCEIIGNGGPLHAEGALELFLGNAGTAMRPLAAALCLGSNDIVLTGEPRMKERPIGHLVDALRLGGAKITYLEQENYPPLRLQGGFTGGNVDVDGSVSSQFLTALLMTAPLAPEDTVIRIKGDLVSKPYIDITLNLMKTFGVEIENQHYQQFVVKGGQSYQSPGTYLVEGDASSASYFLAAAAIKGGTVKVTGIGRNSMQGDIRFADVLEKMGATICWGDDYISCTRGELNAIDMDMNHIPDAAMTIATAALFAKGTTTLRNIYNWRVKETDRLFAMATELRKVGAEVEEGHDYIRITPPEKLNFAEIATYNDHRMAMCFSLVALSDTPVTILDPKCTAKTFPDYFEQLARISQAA

[2] = biological target: T1, 3-phosphoshikimate 1-carboxyvinyltransferase; test: Inhibition of EPSP synthase PEP-Pi site by the compound was expressed as apparent value
[3] = biological target: T1, 3-phosphoshikimate 1-carboxyvinyltransferase; test: Potency against EPSP synthase
[4] = biological target: T1, 3-phosphoshikimate 1-carboxyvinyltransferase; test: Inhibition of the EPSP synthase PEP-Pi site by the compound expressed as apparent value
[5] = biological target: T1, 3-phosphoshikimate 1-carboxyvinyltransferase; test: Inhibition of the EPSP synthase by the compound expressed as weak apparent value
[6] = biological target: T1, 3-phosphoshikimate 1-carboxyvinyltransferase; test: Dissociation constant of the at EPSP synthase was determined

| Compound | pKd [1] | pKi [2] | pKi [3] | pKi [4] | pKi [5] | pKd [6] |
| --- | --- | --- | --- | --- | --- | --- |
| C[C@@](O[C@@H]1CC(C(=O)O)=C[C@@H](OP(=O)(O)O)[C@H]1O)(C(=O)O)P(=O)(O)O | 7.82 | 9.96 | 7.82 |  |  |  |
| O=C(O)CN(CP(=O)(O)O)[C@@H]1CC(C(=O)O)=C[C@@H](OP(=O)(O)O)[C@H]1O |  |  |  | 4.89 | 5.13 | 5.10 |
| N[C@@H]1CC(C(=O)O)=C[C@@H](OP(=O)(O)O)[C@H]1O |  |  | 4.07 |  |  |  |
